Measured values published in patent US7816134B2, “Method of extensive culture of antigen-specific cytotoxic T cells” (Takara Bio Inc., priority 2000, dated 2010).
Where two headings read alike, the source gives them in different places.

Tests used:
[1] = test system: HLA-A2.1-having EBV transformed B-cells (221A2.1); conditions: for Cytotoxic Activity (%) E/T Ratio 3 / Cytotoxic Activity (%) E/T Ratio 10 / Cytotoxic Activity (%) E/T Ratio 1: FluMPA2.1
[2] = test system: HLA-A2.1-having EBV transformed B-cells (221A2.1); assay: Specific cytotoxic activity of MAGE3-specific CTLs after expansion; assay type: cell-based, human; conditions: for Cytotoxic Activity (%): sample induction +, expansion +
From the text: (§1) CTLs prepared in item (1) of Example 2-1 were washed with 5HRPMI, and then made into a suspension having a concentration of 5×10^4 cells/ml. On the other hand, allogenic PBMCs not having HLA-A24 and HLA-A2.1 which were collected in the same manner as in item (1) of Example 1-1 were subjected to X-ray irradiation (3300R), and the cells were washed with the medium and then made into a suspension having a concentration of 5×10^6 cells/ml. These CTLs (2.5×10^4 cells) and allogenic PBMCs (1.25×10^7 cells) were suspended in 10 ml of 5HRPMI, and anti-CD3 antibody (manufactured by Janssen-Kyowa) was further added thereto so as to give a final concentration of 50 ng/ml. The mixture was placed into a flask of 12.5 cm^2 (manufactured by Falcon), and the cells were cultured in a wet-type CO2 incubator at 37° C. for 14 days. […] The expansion ratio (× times ratio) was calculated by dividing the cell count after the expansion by the cell count before the expansion.

[3] = test system: anti-tumor-associated antigen(MAGE3)-specific CTLs; assay: Expansion ratio of MAGE3-specific CTLs; assay type: cell-based, human; conditions: sample 10 μg/ml: induction +, 14 days
From the text: as §1

[4] = test system: HLA-A2.1-having EBV transformed B-cells (221A2.1); assay: Cytotoxic activity of anti-tumor-associated antigen(MAGE3)-specific CTLs on the thirty-fifth day after the initiation of induction; conditions: 10 μg/ml
[5] = test system: HLA-A2.1-having EBV transformed B-cells (221A2.1); conditions: FluMPA2.1
[6] = test system: anti-influenza virus memory CTLs (FluMPA2.1); assay type: cell-based, human
[7] = Example 1-3, sample 10 μg/ml during CTL induction +, during culture with IL-2 +, peptide addition +
[8] = Example 1-3, sample 10 μg/ml during CTL induction +, during culture with IL-2 +, peptide addition −
[9] = Example 1-5, sample during CTL induction −, during culture with IL-2 + (10 μg/ml), peptide addition +
[10] = Example 1-5, sample during CTL induction −, during culture with IL-2 + (10 μg/ml), peptide addition −
[11] = sample 10 μg/ml only during continuous culture
[12] = Example 2-4, sample 10 μg/ml during CTL induction +, during expansion +, peptide addition +
[13] = Example 2-4, sample 10 μg/ml during CTL induction +, during expansion +, peptide addition −
[14] = Example 2-6, sample during CTL induction −, during expansion + (10 μg/ml), peptide addition +
[15] = Example 2-6, sample during CTL induction −, during expansion + (10 μg/ml), peptide addition −
[16] = Example 2-7, sample 10 μg/ml during CTL induction +, during expansion +, peptide addition +
[17] = Example 2-7, sample 10 μg/ml during CTL induction +, during expansion +, peptide addition −
[18] = Example 2-7, sample 10 μg/ml during CTL induction +, during expansion −, peptide addition +
[19] = Example 2-7, sample 10 μg/ml during CTL induction +, during expansion −, peptide addition −
[20] = Example 2-4, sample 10 μg/ml during CTL induction +, during expansion +
[21] = Example 2-6, sample during CTL induction −, during expansion + (10 μg/ml)

Substance: Ardeparin sodium [L. M. W. Heparin, reference compound]
- Cytotoxic Activity (%) E/T Ratio 3 [1, 7]: 49.0%
- Cytotoxic Activity (%) E/T Ratio 10 [1, 7]: 71.7%
- Cytotoxic Activity (%) E/T Ratio 3 [1, 8]: 11.7%
- Cytotoxic Activity (%) E/T Ratio 10 [1, 8]: 14.2%
- Cytotoxic Activity (%) E/T Ratio 10 [1, 9]: 18.3%
- Cytotoxic Activity (%) E/T Ratio 10 [1, 10]: 0%
- cytotoxic activity after continuous culture (in words) ([1]; sample 10 μg/ml during CTL induction and during continuous culture, 10 to 14 days): continuous culture of CTLs having an antigen-specific cytotoxic activity can be carried out
- cytotoxic activity after continuous culture (in words) [1, 11]: maintaining an antigen-specific cytotoxic activity
- cytotoxic activity after expansion for 14 days (in words) ([2]; MAGE3-specific CTLs, sample 10 μg/ml during CTL induction and during expansion): specific, high cytotoxic activity
- Cytotoxic Activity (%) ([2]; peptide addition +, E/T ratio 3): 65.3%
- Cytotoxic Activity (%) ([2]; peptide addition +, E/T ratio 9): 104.8%
- Cytotoxic Activity (%) ([2]; peptide addition −, E/T ratio 3): 2.6%
- Cytotoxic Activity (%) ([2]; peptide addition −, E/T ratio 9): 3.7%
- Expansion Ratio [3]: × 433
- difference in the cytotoxic activity by the presence or absence of the addition during the induction [4]: almost no difference
- Cytotoxic Activity (%) E/T Ratio 3 [5, 12]: 56.4%
- Cytotoxic Activity (%) E/T Ratio 10 [5, 12]: 92.9%
- Cytotoxic Activity (%) E/T Ratio 3 [5, 13]: 5.2%
- Cytotoxic Activity (%) E/T Ratio 10 [5, 13]: 19.6%
- Cytotoxic Activity (%) E/T Ratio 1 [5, 14]: 11.3%
- Cytotoxic Activity (%) E/T Ratio 3 [5, 14]: 22.2%
- Cytotoxic Activity (%) E/T Ratio 10 [5, 14]: 43.9%
- Cytotoxic Activity (%) E/T Ratio 30 [5, 14]: 71.2%
- Cytotoxic Activity (%) E/T Ratio 1 [5, 15]: 1.4%
- Cytotoxic Activity (%) E/T Ratio 3 [5, 15]: 0%
- Cytotoxic Activity (%) E/T Ratio 10 [5, 15]: 0.6%
- Cytotoxic Activity (%) E/T Ratio 30 [5, 15]: 2.5%
- Cytotoxic Activity (%) E/T Ratio 1 [5, 16]: 16.3%
- Cytotoxic Activity (%) E/T Ratio 3 [5, 16]: 22.7%
- Cytotoxic Activity (%) E/T Ratio 10 [5, 16]: 43.9%
- Cytotoxic Activity (%) E/T Ratio 30 [5, 16]: 72.8%
- Cytotoxic Activity (%) E/T Ratio 1 [5, 17]: 5.6%
- Cytotoxic Activity (%) E/T Ratio 3 [5, 17]: 2.5%
- Cytotoxic Activity (%) E/T Ratio 10 [5, 17]: 1.1%
- Cytotoxic Activity (%) E/T Ratio 30 [5, 17]: 0.9%
- Cytotoxic Activity (%) E/T Ratio 1 [5, 18]: 12.5%
- Cytotoxic Activity (%) E/T Ratio 3 [5, 18]: 26.9%
- Cytotoxic Activity (%) E/T Ratio 10 [5, 18]: 57.8%
- Cytotoxic Activity (%) E/T Ratio 30 [5, 18]: 83.7%
- Cytotoxic Activity (%) E/T Ratio 1 [5, 19]: 5.2%
- Cytotoxic Activity (%) E/T Ratio 3 [5, 19]: 4.5%
- Cytotoxic Activity (%) E/T Ratio 10 [5, 19]: 6.6%
- Cytotoxic Activity (%) E/T Ratio 30 [5, 19]: 7.0%
- Expansion Ratio [6, 20]: × 240
- Expansion Ratio [6, 21]: × 353
- Expansion Ratio ([6]; Example 2-7, sample 10 μg/ml during CTL induction +, during expansion +): × 243
- Expansion Ratio ([6]; Example 2-7, sample 10 μg/ml during CTL induction +, during expansion −): × 253

Substance: swellable alginic acid
- Cytotoxic Activity (%) E/T Ratio 1 [1, 7]: 39.8%
- Cytotoxic Activity (%) E/T Ratio 3 [1, 7]: 75.3%
- Cytotoxic Activity (%) E/T Ratio 10 [1, 7]: 86.9%
- Cytotoxic Activity (%) E/T Ratio 1 [1, 8]: 12.5%
- Cytotoxic Activity (%) E/T Ratio 3 [1, 8]: 26.5%
- Cytotoxic Activity (%) E/T Ratio 10 [1, 8]: 22.2%
- Cytotoxic Activity (%) E/T Ratio 1 [1, 9]: 12.6%
- Cytotoxic Activity (%) E/T Ratio 3 [1, 9]: 18.7%
- Cytotoxic Activity (%) E/T Ratio 10 [1, 9]: 35.6%
- Cytotoxic Activity (%) E/T Ratio 1 [1, 10]: 3.3%
- Cytotoxic Activity (%) E/T Ratio 3 [1, 10]: 1.3%
- Cytotoxic Activity (%) E/T Ratio 10 [1, 10]: 8.8%
- cytotoxic activity after continuous culture (in words) [1, 11]: maintaining an antigen-specific cytotoxic activity
- Cytotoxic Activity (%) E/T Ratio 3 [5, 12]: 65.0%
- Cytotoxic Activity (%) E/T Ratio 10 [5, 12]: 101.6%
- Cytotoxic Activity (%) E/T Ratio 3 [5, 13]: 14.3%
- Cytotoxic Activity (%) E/T Ratio 10 [5, 13]: 21.3%
- Cytotoxic Activity (%) E/T Ratio 1 [5, 14]: 15.4%
- Cytotoxic Activity (%) E/T Ratio 3 [5, 14]: 22.0%
- Cytotoxic Activity (%) E/T Ratio 10 [5, 14]: 47.8%
- Cytotoxic Activity (%) E/T Ratio 30 [5, 14]: 81.7%
- Cytotoxic Activity (%) E/T Ratio 1 [5, 15]: 0.1%
- Cytotoxic Activity (%) E/T Ratio 3 [5, 15]: 0%
- Cytotoxic Activity (%) E/T Ratio 10 [5, 15]: 2.1%
- Cytotoxic Activity (%) E/T Ratio 30 [5, 15]: 10.6%
- Expansion Ratio [6, 20]: × 176
- Expansion Ratio [6, 21]: × 378
